Results on 17 compounds are retold here after patent US20080261994A1, “CYCLOPROPANE COMPOUNDS AND PHARMACEUTICAL USE THEREOF” (Japan Tobacco Inc., priority 2003, published 2008).

Format in all cases: biochemical
Experiment [1] addresses T1, aggrecanase-1 (Homo sapiens, UniProt O75173).
T1 sequence (O75173 213-837): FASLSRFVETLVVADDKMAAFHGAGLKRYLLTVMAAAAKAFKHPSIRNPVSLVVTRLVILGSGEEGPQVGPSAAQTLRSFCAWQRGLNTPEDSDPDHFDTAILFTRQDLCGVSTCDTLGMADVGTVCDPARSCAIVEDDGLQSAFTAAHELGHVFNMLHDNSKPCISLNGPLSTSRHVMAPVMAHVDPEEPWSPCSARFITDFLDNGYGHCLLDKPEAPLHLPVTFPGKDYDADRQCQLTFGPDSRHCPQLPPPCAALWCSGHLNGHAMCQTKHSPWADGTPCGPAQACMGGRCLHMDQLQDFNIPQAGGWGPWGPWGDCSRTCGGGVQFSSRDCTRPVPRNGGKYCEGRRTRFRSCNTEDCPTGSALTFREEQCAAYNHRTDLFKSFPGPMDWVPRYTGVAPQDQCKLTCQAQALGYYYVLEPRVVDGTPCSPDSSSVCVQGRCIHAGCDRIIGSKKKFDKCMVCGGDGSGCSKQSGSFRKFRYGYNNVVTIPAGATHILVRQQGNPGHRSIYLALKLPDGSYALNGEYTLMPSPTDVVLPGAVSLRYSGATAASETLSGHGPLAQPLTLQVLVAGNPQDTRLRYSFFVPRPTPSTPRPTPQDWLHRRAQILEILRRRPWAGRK
The experiment can be described thus: Aggrecanase-1 inhibitory action (Particle Assay, GAG release from aggrecan-containing polyacrylamide particles). In short, it runs like this: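 Readout was dimethylmethylene blue absorbance (595 nm) of glycosaminoglycan liberated into supernatant, calibrated with whale chondroitin sulfate. Substrate was aggrecan in polyacrylamide particles, digested 15 h at 37° C in Tris-HCl; TC50 (μM) derived from inhibition relative to no-enzyme and no-inhibitor controls.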

Experiment [2] addresses T2, MMP-1 (Homo sapiens, UniProt P03956).
T2 sequence (P03956 100-469): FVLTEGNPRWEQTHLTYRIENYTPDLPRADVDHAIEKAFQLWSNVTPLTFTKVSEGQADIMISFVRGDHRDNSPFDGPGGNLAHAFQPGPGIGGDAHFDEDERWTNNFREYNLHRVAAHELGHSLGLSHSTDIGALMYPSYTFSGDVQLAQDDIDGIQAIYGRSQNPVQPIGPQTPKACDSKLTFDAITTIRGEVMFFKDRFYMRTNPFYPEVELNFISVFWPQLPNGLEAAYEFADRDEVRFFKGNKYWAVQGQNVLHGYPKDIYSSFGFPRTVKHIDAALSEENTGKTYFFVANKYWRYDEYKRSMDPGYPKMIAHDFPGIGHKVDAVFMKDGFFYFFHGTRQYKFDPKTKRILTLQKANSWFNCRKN
The experiment can be described thus: MMP-1 inhibitory action (Type I collagen Activity Measurement kit, FITC-labeled collagen type I).

Experiment [3] has as its target T3, Recombinant Human MMP-13 (Homo sapiens, UniProt P45452).
T3 construct: purchased R&D systems 511-MM
The experiment can be described thus: MMP-13 inhibitory activity (MMP-13 specific fluorescent substrate with quencher). An outline of the steps:
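IC50 (μM) derived from % inhibition, normalised to wells without enzyme and without inhibitor, fluorescence read at 325/405 nm. Enzyme and compound preceded addition of the quenched 7-MCA…DPA substrate; Tris-HCl buffer, 25 °C for 1 h, acetic-acid stop.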

[4] abbreviates: aggrecanase-1 inhibitory action, read-out: IC50 AG1 (Experimental Example 1).
[5] abbreviates: MMP-1 inhibitory action, FITC-labeled collagen type I, 37° C. for 3 hr, read-out: IC50 MMP1 (Experimental Example 2).
[6] abbreviates: Recombinant Human MMP-13, fluorescent substrate, 25° C. for 1 h, read-out: IC50 MMP13 (Experimental Example 3).
Setting [7] is: Experimental Example 1, read-out: IC50 AG1.
[8] abbreviates: Experimental Example 2, read-out: IC50 MMP1.
The mark [9] stands for this setting: Experimental Example 3, read-out: IC50 MMP13.

Like-named read-outs stand apart in the source and are kept apart here. A value given as a limit tells only on which side of the number the result lay.

`O=C(c1ccccc1C1CC1(NS(=O)(=O)c1ccc(-c2ccc(Cl)cc2)s1)C(=O)O)N1CCOCC1` (stereo not drawn) [Example 2-76]: the IC50 (as a rule, the concentration that inhibits the measured activity by half) was below 100 nM in experiment [1] (setting [4]), at least 10000 nM in experiment [2] (setting [5]) and below 1000 nM in experiment [3] (setting [6]).
On to `O=C(O)C1(NS(=O)(=O)c2ccc(OCc3ccc(Cl)cc3Cl)cc2)C2Cc3ccccc3C21` (stereo not drawn) [Example 2-446], for which the IC50 is at least 1000 nM in experiment [1] (setting [7]), at least 10000 nM in experiment [2] (setting [8]) and at least 1000 nM in experiment [3] (setting [9]).
As to `CC1[C@H](c2ccccc2)[C@]1(NS(=O)(=O)c1ccc(-c2cc(C(F)F)on2)cc1)C(=O)O` (stereo partly drawn) [Example 2-401], the results for the IC50 in experiment [1] (setting [7]), in experiment [2] (setting [8]) and in experiment [3] (setting [9]) were below 100 nM, below 1000 nM and below 100 nM, respectively.
For `CN(C)CCC(=O)Nc1cccc(C2CC2(NS(=O)(=O)c2ccc(-c3ccc(Cl)cc3)s2)C(=O)O)c1` (stereo not drawn) [Example 2-223], the IC50 in experiment [1] (setting [4]) is below 1000 nM; in experiment [2] (setting [5]), at least 10000 nM; in experiment [3] (setting [6]) it was below 1000 nM.
In the case of `CCOC(=O)c1cccc(-c2ccc(S(=O)(=O)N[C@@]3(C(=O)O)C[C@]3(C)c3ccccc3)s2)c1` [Example 2-478], the values for the IC50 in experiment [1] (setting [7]), in experiment [2] (setting [8]) and in experiment [3] (setting [9]) were at least 1000 nM, at least 10000 nM and at least 10000 nM, respectively.
On to `O=C(O)C1(NS(=O)(=O)N2CCN(c3ncc(Br)cn3)CC2)CC1c1ccccc1` (stereo not drawn) [Example 2-155], for which the IC50 was at least 1000 nM in experiment [1] (setting [4]), at least 10000 nM in experiment [2] (setting [5]) and below 1000 nM in experiment [3] (setting [6]).
In the case of `CS(=O)(=O)Nc1cccc(C2CC2(NS(=O)(=O)c2ccc(-c3ccc(Cl)cc3)cc2)C(=O)O)c1` (stereo not drawn) [Example 1-38], the figures for the half-maximal inhibitory concentration (IC50) in experiment [1] (setting [4]), in experiment [2] (setting [5]) and in experiment [3] (setting [6]) were below 100 nM, at least 10000 nM and below 100 nM, respectively.
Turning to `C[C@]1(c2ccc(Cl)cc2)C[C@@]1(NS(=O)(=O)c1ccc(-c2cc(C(F)(F)F)on2)s1)C(=O)O` [Example 2-620], the IC50 was below 100 nM in experiment [1] (setting [7]), below 1000 nM in experiment [2] (setting [8]) and below 100 nM in experiment [3] (setting [9]).
As to `O=C(CN1CCOCC1)Nc1cccc(C2CC2(NS(=O)(=O)c2ccc(-c3cc(C(F)(F)F)on3)s2)C(=O)O)c1` (stereo not drawn) [Example 2-260], the IC50 in experiment [1] (setting [4]) is below 1000 nM; in experiment [2] (setting [5]), at least 1000 nM; in experiment [3] (setting [6]), below 100 nM.
In the case of `CC1[C@H](c2ccccc2)[C@]1(NS(=O)(=O)N1CCCN(c2cccc(Cl)c2)CC1)C(=O)O` (stereo partly drawn) [Example 2-471], the IC50 in experiment [1] (setting [7]) is at least 1000 nM; in experiment [2] (setting [8]) it was at least 10000 nM; in experiment [3] (setting [9]), at least 1000 nM.
Regarding `CN(Cc1cccnc1)c1cccc([C@H]2C[C@@]2(NS(=O)(=O)c2ccc(-c3ccc(Cl)cc3)s2)C(=O)O)c1` [Example 2-183], the half-inhibitory concentration (IC50) is below 100 nM in experiment [1] (setting [4]), at least 1000 nM in experiment [2] (setting [5]) and below 100 nM in experiment [3] (setting [6]).
Regarding `O=C(O)[C@]1(NS(=O)(=O)c2ccc(-c3ccc(Cl)cc3)s2)C[C@@H]1c1ccccc1` [Example 1-85], the IC50 in experiment [1] (setting [4]) is below 100 nM; in experiment [2] (setting [5]) it was at least 1000 nM; in experiment [3] (setting [6]) it was below 100 nM.
Consider `O=C(O)[C@@]1(NS(=O)(=O)c2ccc(-c3ccc(Cl)cc3)s2)C[C@H]1c1ccccc1Br` [Example 2-168], for which the IC50 in experiment [1] (setting [4]) is below 1000 nM; in experiment [2] (setting [5]), at least 10000 nM; in experiment [3] (setting [6]), at least 1000 nM.
With `CC1(c2ccc(Cl)cc2)CC1(NS(=O)(=O)c1ccc(-c2cc(C(F)(F)F)on2)s1)C(=O)O` (stereo not drawn) [Example 2-608], the IC50 in experiment [1] (setting [7]) was below 100 nM; in experiment [2] (setting [8]), below 1000 nM; in experiment [3] (setting [9]) it was below 1000 nM.
On to `C[C@]1(c2ccccc2)C[C@@]1(NS(=O)(=O)c1ccc(-c2ccc(C#N)cc2)s1)C(=O)O` [Example 2-567], for which the IC50 in experiment [1] (setting [7]) was below 100 nM; in experiment [2] (setting [8]) it was at least 1000 nM; in experiment [3] (setting [9]), below 1000 nM.
For the compound `COC(=O)CCc1cccc(C2CC2(NS(=O)(=O)c2ccc(-c3ccc(Cl)cc3)s2)C(=O)O)c1` (stereo not drawn) [Example 2-208], the IC50 was below 100 nM in experiment [1] (setting [4]), at least 1000 nM in experiment [2] (setting [5]) and below 100 nM in experiment [3] (setting [6]).
For the compound `O=C(O)C1(NS(=O)(=O)c2ccc(-c3cc(C(F)(F)F)on3)s2)CC1c1cc(CCO)on1` (stereo not drawn) [Example 2-315], the results for the IC50 in experiment [1] (setting [7]), in experiment [2] (setting [8]) and in experiment [3] (setting [9]) were below 1000 nM, at least 10000 nM and below 1000 nM, respectively.
